The text below walks through data of patent US9493455B2, “Azaindole derivatives as inhibitors of protein kinases” (ORIBASE PHARMA, priority 2012, dated 2016).

Molecules are shown by their SMILES.

One assay has as its system HRMEC. The assay is described as follows: In vitro cell proliferation assay (MTT). The assay is classed as cell-based. The conditions noted are these: 72 h. The gist of the method: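 Growth is assessed with the tetrazolium dye MTT following a 72 hr incubation with compound spanning 10 nM up to 3 μM, each dose tested twice on 5×10^3 plated cells per well.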
For a further assay, the system named is H1975. The assay is described as follows: In vitro cell proliferation assay (MTT). The conditions noted are these: Homo sapiens, NCI-H1975, 72 h. The assay is classed as cell-based. Summed up:
(§1)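 MTT read-out of proliferation after 72 hr compound exposure; 5×10^3 cells/well, duplicate wells, dose range 10 nM–3 μM.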

The subject of the next assay is HT29. The experiment in a line: In vitro cell proliferation assay (MTT). In kind it is cell-based. Particulars: Homo sapiens, HT-29, 72 h. The gist of the method:
as §1

Another assay relates to HUVEC. The assay is described as follows: In vitro cell proliferation assay (MTT). The assay is classed as cell-based. Particulars: Homo sapiens, 72 h. As for the experimental part:
Cancer cell lines (5×10^3 cells per well) or HUVEC (1×10^4 cells per well) or HRMEC (1×10^4 cells per well) were distributed in 96-well plates and incubating in duplicate with escalating concentrations (10 nM to 3 μM) of compounds for 72 hr. Cell proliferation was measured using MTT (3 [4,5-dimethylthiazol-2-yl]-2,5-diphenyltetrazolium bromide).

The next assay relates to BxPC-3. The assay is described as follows: In vitro cell proliferation assay (MTT). In kind it is cell-based. Particulars: Homo sapiens, BXPC-3, 72 h. Summed up: as §1
In the next assay the test system is A549. The assay is described as follows: In vitro cell proliferation assay (MTT). The assay is classed as cell-based. Particulars: Homo sapiens, A549, 72 h. Summed up: as §1
The test system of the next assay is HepG2. The experiment in a line: In vitro cell proliferation assay (MTT). In kind it is cell-based. The conditions noted are these: Homo sapiens, HepG2, 72 h. Summed up: as §1
For a further assay, the target named is T1, FGFR2 (Homo sapiens, UniProt P21802).
T1 construct: purchased Invitrogen
The experiment in a line: In vitro kinase assay (Z′-LYTE). The conditions noted are these: read-out: % of inhibition of the kinase compared to the control. In kind it is biochemical. Summed up: (§2)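 Inhibition measured at a single dose, 100 nM, or 10 μM for ABL T315I. Z′-LYTE format with ATP at apparent Km; emission ratio of donor to acceptor quantifies phosphorylation.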

A further assay deals with T2, VEGFR1 (Homo sapiens, UniProt P17948).
T2 construct: purchased Invitrogen
The experiment in a line: In vitro kinase assay (Z′-LYTE). In kind it is biochemical. The conditions noted are these: read-out: % of inhibition of the kinase compared to the control. The gist of the method: as §2

A further assay deals with T3, ABL T315I (Homo sapiens, UniProt P00519, T315I).
T3 construct: purchased Invitrogen
The assay is described as follows: In vitro kinase assay (Z′-LYTE). In kind it is biochemical. Particulars: read-out: % of inhibition of the kinase compared to the control. The gist of the method:
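Peptide/kinase mix combined with ATP (apparent Km) in 50 mM HEPES pH 7.5, 10 mM MgCl2, 1 mM EGTA, 0.01% BRIJ-35; compound present at 100 nM, except 10 μM for ABL T315I; DMSO 1% final. Protease development, then FRET emission ratio.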

A further assay addresses T4, EGFR (ErbB1) T790M L858R (Homo sapiens, UniProt P00533, L858R/T790M).
T4 construct: purchased Invitrogen
The assay is described as follows: In vitro kinase assay (Z′-LYTE). The assay is classed as biochemical. The conditions noted are these: read-out: % of inhibition of the kinase compared to the control. The gist of the method: as §2

A further assay deals with T5, PDGFRA (PDGFR alpha) (Homo sapiens, UniProt P16234).
T5 construct: purchased Invitrogen
The experiment in a line: In vitro kinase assay (Z′-LYTE). The conditions noted are these: read-out: % of inhibition of the kinase compared to the control. The assay is classed as biochemical. The gist of the method: as §2

For a further assay, the target named is T6, EGFR (ErbB1) (Homo sapiens, UniProt P00533).
T6 construct: purchased Invitrogen
The assay is described as follows: In vitro kinase assay (Z′-LYTE). The conditions noted are these: read-out: % of inhibition of the kinase compared to the control. In kind it is biochemical. The gist of the method: as §2

Another assay concerns the target T7, ABL (Homo sapiens, UniProt P00519).
T7 construct: purchased Invitrogen
The experiment in a line: In vitro kinase assay (Z′-LYTE). The assay is classed as biochemical. Particulars: read-out: % of inhibition of the kinase compared to the control.

For a further assay, the target named is T8, SRC (Homo sapiens, UniProt P12931).
T8 construct: purchased Invitrogen
The assay is described as follows: In vitro kinase assay (Z′-LYTE). Particulars: read-out: % of inhibition of the kinase compared to the control. In kind it is biochemical. The gist of the method:
as §2

The next assay concerns the target T9, BRAF (Homo sapiens, UniProt P15056).
T9 construct: purchased Invitrogen
The assay is described as follows: In vitro kinase assay (Z′-LYTE). In kind it is biochemical. Particulars: compound 100 nM; ATP 100 μM; read-out: % of inhibition of the kinase compared to the control. The gist of the method:
as §2

In another assay the target is T10, KDR (VEGFR2) (Homo sapiens, UniProt P35968).
T10 construct: purchased Invitrogen
The assay is described as follows: In vitro kinase assay (Z′-LYTE). Particulars: read-out: % of inhibition of the kinase compared to the control. In kind it is biochemical. Summed up: as §2

The target in a further assay is T11, FGFR1 (Homo sapiens, UniProt P11362).
T11 construct: purchased Invitrogen
The experiment in a line: In vitro kinase assay (Z′-LYTE). The assay is classed as biochemical. The conditions noted are these: read-out: % of inhibition of the kinase compared to the control. Summed up: as §2

The target of the next assay is T12, PDGFRB (Homo sapiens, UniProt P09619).
T12 construct: purchased Invitrogen
The assay is described as follows: In vitro kinase assay (Z′-LYTE). In kind it is biochemical. The conditions noted are these: read-out: % of inhibition of the kinase compared to the control. Summed up: as §2

The test system of another assay is HuCCT1. The assay is described as follows: In vitro cell proliferation assay (MTT). Particulars: Homo sapiens, HuCCT-1, 72 h. In kind it is cell-based. The gist of the method:
as §1

The test system of the next assay is MDA-MB-231. The experiment in a line: In vitro cell proliferation assay (MTT). The assay is classed as cell-based. The conditions noted are these: Homo sapiens, MDA-MB-231, 72 h. The gist of the method:
as §1

Another assay deals with HuH7. The assay is described as follows: In vitro cell proliferation assay (MTT). The conditions noted are these: Homo sapiens, Huh-7, 72 h. The assay is classed as cell-based. The gist of the method:
as §1

The subject of another assay is HuH6 Clone 5. The assay is described as follows: In vitro cell proliferation assay (MTT). In kind it is cell-based. The conditions noted are these: HUH-6-clone5, 72 h. Summed up: as §1
The subject of another assay is HeLa. The assay is described as follows: In vitro cell proliferation assay (MTT). In kind it is cell-based. The conditions noted are these: Homo sapiens, 72 h. The gist of the method: as §1
A further assay concerns Caki-2. The assay is described as follows: In vitro cell proliferation assay (MTT). In kind it is cell-based. The conditions noted are these: Homo sapiens, CAKI-2, 72 h. Summed up:
as §1

T6 sequence (P00533 25-1210): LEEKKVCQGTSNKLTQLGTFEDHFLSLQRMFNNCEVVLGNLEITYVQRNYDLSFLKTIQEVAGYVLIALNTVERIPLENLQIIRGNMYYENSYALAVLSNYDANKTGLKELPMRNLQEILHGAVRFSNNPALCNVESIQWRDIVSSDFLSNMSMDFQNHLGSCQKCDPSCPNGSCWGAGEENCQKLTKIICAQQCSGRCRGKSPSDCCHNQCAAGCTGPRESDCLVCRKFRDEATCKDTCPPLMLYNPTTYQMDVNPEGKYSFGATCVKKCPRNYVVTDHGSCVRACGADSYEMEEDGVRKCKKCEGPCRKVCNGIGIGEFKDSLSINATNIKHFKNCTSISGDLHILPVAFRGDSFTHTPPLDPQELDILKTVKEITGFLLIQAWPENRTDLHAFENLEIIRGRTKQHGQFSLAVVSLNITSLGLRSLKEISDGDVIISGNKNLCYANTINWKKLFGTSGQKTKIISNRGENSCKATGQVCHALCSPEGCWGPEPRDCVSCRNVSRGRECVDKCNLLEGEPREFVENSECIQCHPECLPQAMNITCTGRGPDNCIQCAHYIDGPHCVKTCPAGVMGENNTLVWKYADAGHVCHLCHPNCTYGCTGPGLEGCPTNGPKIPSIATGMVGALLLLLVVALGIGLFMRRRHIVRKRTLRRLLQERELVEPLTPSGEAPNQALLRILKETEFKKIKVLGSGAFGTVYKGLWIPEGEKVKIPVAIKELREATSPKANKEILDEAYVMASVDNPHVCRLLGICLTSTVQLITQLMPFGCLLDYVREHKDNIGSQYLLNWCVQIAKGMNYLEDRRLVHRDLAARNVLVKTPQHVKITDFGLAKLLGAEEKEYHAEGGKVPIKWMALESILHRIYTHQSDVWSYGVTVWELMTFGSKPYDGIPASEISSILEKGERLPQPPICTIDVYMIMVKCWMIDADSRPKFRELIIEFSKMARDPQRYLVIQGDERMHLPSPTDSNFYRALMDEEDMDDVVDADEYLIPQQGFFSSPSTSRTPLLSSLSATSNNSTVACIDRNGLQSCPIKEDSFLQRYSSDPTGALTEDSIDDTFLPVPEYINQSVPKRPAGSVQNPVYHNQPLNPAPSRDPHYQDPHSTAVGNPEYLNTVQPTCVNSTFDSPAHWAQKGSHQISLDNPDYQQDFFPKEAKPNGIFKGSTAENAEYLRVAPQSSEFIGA
T1 sequence (P21802 22-821): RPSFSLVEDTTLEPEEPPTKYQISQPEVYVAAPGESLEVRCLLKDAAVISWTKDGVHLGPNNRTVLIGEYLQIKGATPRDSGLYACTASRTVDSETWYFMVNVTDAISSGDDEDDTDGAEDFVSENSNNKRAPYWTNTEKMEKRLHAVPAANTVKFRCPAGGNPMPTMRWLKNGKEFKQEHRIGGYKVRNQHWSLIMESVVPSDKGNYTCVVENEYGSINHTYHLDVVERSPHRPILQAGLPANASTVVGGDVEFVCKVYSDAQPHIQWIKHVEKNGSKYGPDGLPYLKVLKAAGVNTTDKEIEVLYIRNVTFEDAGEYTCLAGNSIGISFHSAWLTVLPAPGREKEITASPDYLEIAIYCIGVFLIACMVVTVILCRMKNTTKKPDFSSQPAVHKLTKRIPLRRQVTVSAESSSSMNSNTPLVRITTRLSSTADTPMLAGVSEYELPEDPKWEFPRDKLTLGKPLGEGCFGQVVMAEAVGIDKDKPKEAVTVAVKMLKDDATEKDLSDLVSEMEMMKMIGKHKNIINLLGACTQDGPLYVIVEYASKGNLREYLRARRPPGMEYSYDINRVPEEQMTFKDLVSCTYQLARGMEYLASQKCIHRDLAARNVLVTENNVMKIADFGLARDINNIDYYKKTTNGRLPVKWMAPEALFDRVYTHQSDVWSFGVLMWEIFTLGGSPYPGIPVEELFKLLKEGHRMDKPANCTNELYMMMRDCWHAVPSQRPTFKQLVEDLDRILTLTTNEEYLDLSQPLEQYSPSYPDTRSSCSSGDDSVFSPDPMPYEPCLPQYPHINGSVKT
T8 sequence (P12931 whole entry): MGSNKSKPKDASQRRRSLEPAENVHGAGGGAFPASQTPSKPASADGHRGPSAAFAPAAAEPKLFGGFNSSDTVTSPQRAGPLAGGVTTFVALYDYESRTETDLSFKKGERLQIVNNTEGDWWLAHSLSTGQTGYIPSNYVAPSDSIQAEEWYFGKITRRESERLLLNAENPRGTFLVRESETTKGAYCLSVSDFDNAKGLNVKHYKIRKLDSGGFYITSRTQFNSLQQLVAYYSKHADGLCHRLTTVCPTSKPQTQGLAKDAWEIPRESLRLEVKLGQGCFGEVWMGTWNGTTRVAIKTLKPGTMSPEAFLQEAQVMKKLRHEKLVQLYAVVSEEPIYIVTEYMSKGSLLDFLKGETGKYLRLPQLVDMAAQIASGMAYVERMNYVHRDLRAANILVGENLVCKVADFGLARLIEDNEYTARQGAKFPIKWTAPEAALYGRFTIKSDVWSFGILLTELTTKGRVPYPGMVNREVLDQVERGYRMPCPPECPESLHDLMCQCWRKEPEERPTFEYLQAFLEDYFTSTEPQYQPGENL
T4 sequence (P00533 25-1210 T790M/L858R): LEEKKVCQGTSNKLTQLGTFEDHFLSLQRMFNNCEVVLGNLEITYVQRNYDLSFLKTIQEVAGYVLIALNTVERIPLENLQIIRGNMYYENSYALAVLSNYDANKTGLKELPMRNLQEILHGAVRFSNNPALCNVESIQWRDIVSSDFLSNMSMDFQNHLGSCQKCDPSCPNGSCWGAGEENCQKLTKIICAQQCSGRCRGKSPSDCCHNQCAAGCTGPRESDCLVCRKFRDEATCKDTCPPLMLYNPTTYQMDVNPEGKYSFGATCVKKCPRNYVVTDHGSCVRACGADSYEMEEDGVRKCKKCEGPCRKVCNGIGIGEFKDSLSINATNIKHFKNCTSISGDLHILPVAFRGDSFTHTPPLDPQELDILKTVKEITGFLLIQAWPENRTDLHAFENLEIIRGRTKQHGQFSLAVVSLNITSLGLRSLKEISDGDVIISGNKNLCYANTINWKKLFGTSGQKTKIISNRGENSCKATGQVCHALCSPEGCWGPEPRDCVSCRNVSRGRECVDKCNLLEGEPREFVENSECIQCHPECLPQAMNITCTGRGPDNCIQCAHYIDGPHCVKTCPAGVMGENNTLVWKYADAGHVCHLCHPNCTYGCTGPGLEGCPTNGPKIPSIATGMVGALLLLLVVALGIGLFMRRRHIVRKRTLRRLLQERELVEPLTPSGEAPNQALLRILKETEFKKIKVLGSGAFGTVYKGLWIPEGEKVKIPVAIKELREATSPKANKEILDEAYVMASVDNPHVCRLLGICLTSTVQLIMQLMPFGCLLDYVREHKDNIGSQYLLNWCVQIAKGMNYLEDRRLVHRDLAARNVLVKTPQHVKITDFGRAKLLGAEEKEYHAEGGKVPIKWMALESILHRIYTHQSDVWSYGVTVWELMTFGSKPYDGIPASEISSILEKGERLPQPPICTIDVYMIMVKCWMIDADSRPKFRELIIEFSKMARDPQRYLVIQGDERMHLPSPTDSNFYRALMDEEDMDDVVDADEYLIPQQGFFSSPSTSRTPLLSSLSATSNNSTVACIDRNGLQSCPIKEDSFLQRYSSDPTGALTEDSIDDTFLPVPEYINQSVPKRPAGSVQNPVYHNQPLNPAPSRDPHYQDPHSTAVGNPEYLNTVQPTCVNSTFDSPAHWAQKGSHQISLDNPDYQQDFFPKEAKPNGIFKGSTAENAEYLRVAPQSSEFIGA
T5 sequence (P16234 24-1089): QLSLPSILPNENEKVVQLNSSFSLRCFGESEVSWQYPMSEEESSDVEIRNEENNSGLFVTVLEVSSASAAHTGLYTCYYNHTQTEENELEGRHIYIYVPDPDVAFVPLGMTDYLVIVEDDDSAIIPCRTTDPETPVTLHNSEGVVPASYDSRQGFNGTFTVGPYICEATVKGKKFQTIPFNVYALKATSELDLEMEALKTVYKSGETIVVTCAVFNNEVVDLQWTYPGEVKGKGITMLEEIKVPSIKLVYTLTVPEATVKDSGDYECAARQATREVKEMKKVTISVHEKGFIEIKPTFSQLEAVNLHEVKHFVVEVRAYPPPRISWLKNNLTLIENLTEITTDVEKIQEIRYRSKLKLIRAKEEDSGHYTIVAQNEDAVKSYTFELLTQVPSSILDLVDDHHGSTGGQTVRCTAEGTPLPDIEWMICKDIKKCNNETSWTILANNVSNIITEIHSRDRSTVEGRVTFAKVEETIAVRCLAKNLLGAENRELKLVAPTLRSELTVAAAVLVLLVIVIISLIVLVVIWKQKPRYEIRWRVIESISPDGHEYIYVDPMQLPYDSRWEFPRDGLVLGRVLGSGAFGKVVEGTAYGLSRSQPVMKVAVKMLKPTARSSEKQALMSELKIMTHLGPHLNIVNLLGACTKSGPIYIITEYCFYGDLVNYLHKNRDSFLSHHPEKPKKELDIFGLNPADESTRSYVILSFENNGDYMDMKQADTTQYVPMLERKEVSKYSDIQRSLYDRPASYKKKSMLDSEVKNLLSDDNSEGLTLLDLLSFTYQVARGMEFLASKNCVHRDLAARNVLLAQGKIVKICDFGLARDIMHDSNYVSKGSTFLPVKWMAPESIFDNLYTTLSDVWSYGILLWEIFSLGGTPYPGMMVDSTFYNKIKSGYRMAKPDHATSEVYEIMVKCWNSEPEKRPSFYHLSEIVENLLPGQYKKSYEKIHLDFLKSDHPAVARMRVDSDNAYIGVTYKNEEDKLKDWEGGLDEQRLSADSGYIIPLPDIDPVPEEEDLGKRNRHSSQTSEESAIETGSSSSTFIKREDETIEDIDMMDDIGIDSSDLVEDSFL

For the compound `COC(=O)c1cc2cc(NCc3cc(NC(=O)c4ccc5[nH]nnc5c4)ccc3C)cnc2[nH]1` [OR0616], the EC50 in the assay on HRMEC, in the assay with H1975, in the assay on HT29, in the assay on HUVEC, in the assay on BxPC-3 and in the assay with A549 was at least 1000 nM throughout. Also, the EC50 (as a rule, the concentration at which the effect is half-maximal) in the assay on HepG2 was at least 1000 nM. The inhibition (usually how much of the control response was suppressed) at 0.1 µM was below 50% at FGFR2; below 50% at VEGFR1; below 50% on EGFR (ErbB1) T790M L858R; at least 50% on PDGFRA (PDGFR alpha); below 50% at EGFR (ErbB1); below 50% at SRC. Also, the inhibition at 0.1 µM on BRAF is at least 50%; on KDR (VEGFR2) it was below 50%; at FGFR1 it was below 50%; on PDGFRB, at least 50%. Besides, the inhibition at 10 µM on ABL T315I is below 50%; on ABL it was at least 50%.

With `COC(=O)c1cc2cc(NCc3cc(NC(=O)c4ccc5[nH]ccc5c4)ccc3C)cnc2[nH]1` [OR0617], the EC50 in the assay on HRMEC is at least 1000 nM; in the assay with HuCCT1, at least 1000 nM; in the assay on H1975, at least 1000 nM; in the assay on HT29, at least 1000 nM; in the assay with HUVEC, 100 to 1000 nM; in the assay with BxPC-3 it was at least 1000 nM. Besides, the results for the EC50 in the assay on A549 and in the assay with HepG2 were at least 1000 nM and 100 to 1000 nM, respectively. Moreover, the inhibition at 0.1 µM was below 50% at FGFR2; below 50% at VEGFR1; below 50% at EGFR (ErbB1) T790M L858R; at least 50% at PDGFRA (PDGFR alpha); below 50% at EGFR (ErbB1); at least 50% at SRC. The inhibition at 0.1 µM is at least 50% at BRAF, at least 50% at KDR (VEGFR2), below 50% at FGFR1 and below 50% at PDGFRB. Besides, the figures for the inhibition at 10 µM on ABL T315I and on ABL were below 50% and at least 50%, respectively.

Take `COC(=O)c1cc2cc(NC(=O)c3cc(NC(=O)c4ccc(CN5CCN(C)CC5)c(C(F)(F)F)c4)ccc3C)cnc2[nH]1` [OR0744]: the EC50 in the assay with MDA-MB-231 is 100 to 1000 nM; with HuH7, 100 to 1000 nM; in the assay on HRMEC, 100 to 1000 nM; in the assay with HuCCT1 it was at least 1000 nM; in the assay on H1975, at least 1000 nM; in the assay with HT29 it was 100 to 1000 nM. The concentration giving a half-maximal response (EC50) in the assay with HUVEC was 100 to 1000 nM; in the assay on A549 it was 100 to 1000 nM; with HuH6 Clone 5 it was at least 1000 nM; with HepG2 it was 100 to 1000 nM; in the assay on HeLa, 100 to 1000 nM. Further, the inhibition at 0.1 µM on FGFR2, at EGFR (ErbB1) T790M L858R, on PDGFRA (PDGFR alpha), on EGFR (ErbB1), on SRC and on BRAF was at least 50% throughout. In addition, on KDR (VEGFR2), the inhibition at 0.1 µM is at least 50%.

Consider `CCN(CC)CCNC(=O)c1c(C)[nH]c(/C=C2\C(=O)Nc3ccc(F)cc32)c1C` [Sunitinib, reference compound], for which the EC50 in the assay with Caki-2 and with BxPC-3 was at least 1000 nM in each case.
